# Legend:
# [1] = system: cisplatin-resistant clone A2780cis; assay: Cell proliferation MTT assay, 72 h; assay type: cell-based, human; details: for IC50: A2780cis cells, 72 h, MTT, mean±SEM; for Fold resistance A2780cis/A2780 ratio: ratio of IC50 A2780cis to A2780
# Procedure: (§1) Complexes 1 and 2 were dissolved (10 mM) in DMSO and stored at -80° C. at volumes of 500 μL or aliquots with volumes of 10 μL were taken and stored at -20° C. (used once without refreezing). The compounds were then diluted in RPMI medium immediately before use. Cisplatin was purchased from Mayne Pharma. Culture medium with the same amount of drug-free DMSO was used as a negative control. The classical Hodgkin lymphoma L-540 cell line was obtained from the German Collection of Microorganisms and Cell Cultures (Braunschweig, Germany). Human ovarian epithelial carcinoma-derived cancer cells A2780 and its cisplatin-resistant clone A2780cis were from Sigma, Inc. (St. Louis, Mo., USA). The parent cisplatin-resistant subclone A2780cis was maintained by weekly treatment with 1 μM cisplatin ([…]. Celegato, C. Borghese, M. Mongiat, A. Colombatti, and D. Aldinucci, Clin. Cancer Res. vol. 20, pp. 5496-5506, 2014, incorporated herein by reference in its entirety). Cells were cultured at 37° C. in 5% CO2 in RPMI medium supplemented with 10% heat-inactivated FBS, 0.1% (w/v) L-glutamine and antibiotics (0.2 mg/mL penicillin and streptomycin). For the cell proliferation assay, 4.0×10^3 A2780 and A2780cis cells were seeded in 96-well flat-bottomed microplates in RPMI medium (100 μL) and incubated at 37° C. in a 5% CO2 atmosphere for 24 h (to allow cell adhesion) before drug testing. The medium was then removed and replaced with fresh medium containing the compounds to be tested and cisplatin at increasing concentrations (from 1 to 100 μM) at 37° C. for 72 h. Each treatment was performed in triplicate. Cell proliferation was assayed using the MTT assay. L-540 cells (2.0×10^5/ml) were seeded in 48-well plates and treated with increasing concentrations of complex 1 and complex 2. After 72 hours, the number of viable cells was evaluated by a trypan blue dye exclusion. The IC50 values (i.e., the half maximal inhibitory concentration, representing the concentration of a substance required for 50% inhibition in vitro) were calculated using CalcuSyn software (Biosoft, Ferguson, Mo., USA) (T. C. Chou, and P. Talalay, Adv. Enzyme Regul. vol. 22, pp. 27-55, 1984, incorporated herein by reference in its entirety). The results were presented as the mean±SEM of three replicate wells from three independent experiments. The cells were imaged under an inverted microscope (Eclipse TS/100, Nikon) with a photomicrographic system (DS Camera Control Unit DS-L2). Phase contrast micrographs were taken at a magnification of 4× (for L-540 cells) and 10× (for A2780 and A2780cis cells).
# [2] = system: ovarian epithelial carcinoma-derived cancer cells A2780; assay: Cell proliferation MTT assay, 72 h; assay type: cell-based, human; details: mean±SEM
# Procedure: as §1
# [3] = Kinetics of substitution reaction of gold(III) complexes with glutathione (UV-vis, 297 nm); assay type: physicochemical; details: for second-order rate constant k for the reaction with GSH: at 298K, 20 mM NaCl, 297 nm; for ΔH^† activation enthalpy, reaction with GSH / ΔS^† activation entropy, reaction with GSH: from Eyring plots
# Procedure: All kinetics measurements were made using a UV-vis spectrophotometer (Agilent Technologies, Cary 100 UV-Vis). Scanning kinetic mode was used to investigate the change in the electronic spectra for gold(III) complexes upon interaction with GSH to determine the effective wavelength for the reactions. Then, the kinetic mode was used to monitor the reaction progress at the selected wavelength. A solution containing 0.2 mM gold(III) complexes was prepared in water, and 40 mM sodium chloride was added to improve the stability of the mononuclear-gold(III) complexes by preventing hydrolysis of the chlorides (A. Djeković, B. Petrović, Z. D. Bugarcić, R. Puchta, and R. van Eldik, Dalton Trans., vol. 41, no. 13, pp. 3633-41, 2012, incorporated herein by reference in its entirety). A series of GSH solutions was also prepared. Equal volumes of gold(III) complex solution and GSH solution were mixed, and the spectral changes recorded using the scanning kinetic mode in the range from 200 nm to 350 nm. Then, the kinetic mode was used to follow the reaction at three different temperatures. The reaction between the gold(III)-diamine complexes and the GSH ligand to form gold(III)-complexes can be illustrated in following equation: […]
# The rate (k) of the described reactions can be calculated from the slope of the linear plot of kobs versus GSH concentration according to eqn (1), where the rate of the reverse reaction (k−1) is obtained from the intercept of the straight line. kobs=k[GSH]+k−1[Cl] Eqn (1)
# Using Microsoft Excel, the rate constants and activation parameters were calculated from Eyring plots: […]
# The kinetics of the substitution reaction between the synthesized anticancer gold(III) complexes 1 and 2 with tripeptide glutathione were investigated spectrophotometrically by monitoring the spectral changes of the gold(III) complexes in solution with excess of GSH. […] Equal volumes of the gold(III) complexes and GSH were kept until thermal equilibration was achieved and then mixed directly inside a UV cell. The changes in the absorption at a selected wavelength (297 nm) under pseudo-first order conditions as functions of the glutathione concentration and temperature were collected. The […] rate constant (k) was obtained from the linear plot of kobs versus the total GSH concentration (1). NaCl was added in excess to avoid the hydrolysis of mononuclear-gold(III) diamine chloride, but this was not found to be effective for complex 2 (FIG. 2).
# [4] = system: classical Hodgkin lymphoma L-540 cell line; assay: In vitro cytotoxicity, trypan blue dye exclusion, 72 h; assay type: cell-based, human; details: L-540 cells; for IC50: trypan blue assay
# Procedure: Complexes 1 and 2 were dissolved (10 mM) in DMSO and stored at −80° C. at volumes of 500 μL or aliquots with volumes of 10 μL were taken and stored at −20° C. (used once without refreezing). The compounds were then diluted in RPMI medium immediately before use. Cisplatin was purchased from Mayne Pharma. Culture medium with the same amount of drug-free DMSO was used as a negative control.
# The classical Hodgkin lymphoma L-540 cell line was obtained from the German Collection of Microorganisms and Cell Cultures (Braunschweig, Germany). Human ovarian epithelial carcinoma-derived cancer cells A2780 and its cisplatin-resistant clone A2780cis were from Sigma, Inc. (St. Louis, Mo., USA). The parent cisplatin-resistant subclone A2780cis was maintained by weekly treatment with 1 μM cisplatin (N. Casagrande, M. Celegato, C. Borghese, M. Mongiat, A. Colombatti, and D. Aldinucci, Clin. Cancer Res. vol. 20, pp. 5496-5506, 2014, incorporated herein by reference in its entirety). Cells were cultured at 37° C. in 5% CO2 in RPMI medium supplemented with 10% heat-inactivated FBS, 0.1% (w/v) L-glutamine and antibiotics (0.2 mg/mL penicillin and streptomycin).
# For the cell proliferation assay, 4.0×10^3 A2780 and A2780cis cells were seeded in 96-well flat-bottomed microplates in RPMI medium (100 μL) and incubated at 37° C. in a 5% CO2 atmosphere for 24 h (to allow cell adhesion) before drug testing. The medium was then removed and replaced with fresh medium containing the compounds to be tested and cisplatin at increasing concentrations (from 1 to 100 μM) at 37° C. for 72 h. Each treatment was performed in triplicate. Cell proliferation was assayed using the MTT assay. L-540 cells (2.0×10^5/ml) were seeded in 48-well plates and treated with increasing concentrations of complex 1 and complex 2. After 72 hours, the number of viable cells was evaluated by a trypan blue dye exclusion. […]
IC50 [1] [µM],IC50 ([2]; listed as 2) [µM],IC50 ([2]; listed as (2)) [µM],SMILES,Fold resistance A2780cis/A2780 ratio [1],Fold resistance A2780cis/A2780 ratio ([1]; listed as cisplatin),IC50 [2] [µM],"Ea activation energy, reaction with GSH [3] [kcal/mol]",second-order rate constant k for the reaction with GSH [3] [M⁻¹ s⁻¹],"ΔH^† activation enthalpy, reaction with GSH [3] [kcal/mol]","ΔS^† activation entropy, reaction with GSH [3] [JK^−1mol^−1]",IC50 [4] [µM],fold more active than complex 1 (L-540 IC50) [4] [fold]
61.3,,,"NC1CCCCC1N.[Au+3].[Cl-].[Cl-].[Cl-] [Complex 1, 1(R),2(R)-[(DACH)AuCl2]Cl]",3.90,,15.7,7.65,1.14,7.17,−137,70.4,
31.1,6.98,6.9 ± 0.6,"NC1CCCCC1N.NC1CCCCC1N.[Au+3].[Cl-].[Cl-].[Cl-] [Complex 2, 1(R),2(R)-[(DACH)2Au]Cl3]",4.45,,,4.54,0.31,4.06,−189,9.8,7

SMILES,IC50 [1] [µM],IC50 ([2]; listed as 2) [µM],IC50 ([2]; listed as (2)) [µM],Fold resistance A2780cis/A2780 ratio [1],Fold resistance A2780cis/A2780 ratio ([1]; listed as cisplatin),IC50 [2] [µM],"Ea activation energy, reaction with GSH [3] [kcal/mol]",second-order rate constant k for the reaction with GSH [3] [M⁻¹ s⁻¹],"ΔH^† activation enthalpy, reaction with GSH [3] [kcal/mol]","ΔS^† activation entropy, reaction with GSH [3] [JK^−1mol^−1]",IC50 [4] [µM],fold more active than complex 1 (L-540 IC50) [4] [fold]
"N.N.[Cl][Pt][Cl] [Cisplatin, reference compound]",17.6,,,9.77,9.7,1.8,,,,,,

# Source: US9657035B1, “Method of treating cancer and gold(III) complexes as anti-cancer agents” (KING FAHD UNIVERSITY OF PETROLEUM AND MINERALS, priority 2015, dated 2017)
